According to patent US9586978B2, “Anti-viral compounds” (AbbVie Inc., priority 2009, dated 2017):
Read-outs that look alike come from different tables or passages of the source.

Legend:
[1] = system: HCV genotype 1a replicon; assay: HCV genotype 1a replicon assay; assay type: cell-based, Hepatitis C virus; details: Hepatitis C virus
Source text: (§1) [drawing 14] employs a biphenyl linker between the imidazole moieties. See WO2008021927(BMS). The EC50 values of BMS-790052 against different HCV genotypes were shown by Nettles et al., “BMS-790052 is a First-in-class Potent Hepatitis C Virus (HCV) NS5A Inhibitor for Patients with Chronic HCV Infection: Results from a Proof-of-concept Study”, 59th Annual Meeting of the American Association for the Study of Liver Diseases (Oct. 31-Nov. 1, 2008, San Francisco, Calif.; www.natap.org/2008/AASLD/AASLD_06.htm). […] See also Gao et al., NATURE 465:96-100 (2010). The compounds in Table 1 use different linkers between the imidazole moieties. Table 1 depicts the EC50 values of these compounds when tested using respective replicon assays in the presence of 5% (v/v) fetal bovine serum (FBS).
(§2) Table 2 compares compounds containing unsubstituted benzimidazole to those containing halo-substituted benzimidazole. Anti-viral activities were assessed using wild-type replicons (e.g., 1b WT or 1a WT) as well as replicons containing specific NS5A mutations (e.g., 1b L28T, 1b Y93H, 1a L31V, 1a Y93C, 1a M28V, or 1a Q30E) in the absence of FBS.
(§3) Table 3 compares compounds with different linkers between the benzimidazole moieties. Anti-viral activities were determined using 1a and 1b replicon assays. “HP” refers to human plasma. […] As compared to the phenyl linker

[2] = system: HCV genotype 1b replicon; assay: HCV genotype 1b replicon assay; assay type: cell-based, Hepatitis C virus; details: Hepatitis C virus
Source text: as §1, §2, §3

[3] = system: HCV genotype 2b replicon; assay: HCV genotype 2b replicon assay; assay type: cell-based, Hepatitis C virus; details: Hepatitis C virus, absence of human plasma; Table 5; read-out: EC50 (nM, in the absence of HP) 2b
Source text: as §1

[4] = system: HCV genotype 3a replicon; assay: HCV genotype 3a replicon assay; assay type: cell-based, Hepatitis C virus; details: Hepatitis C virus, read-out: EC50 (nM, in the absence of HP) 3a, absence of human plasma; Table 5
Source text: as §1

[5] = system: HCV genotype 4a replicon; assay: HCV genotype 4a replicon assay; assay type: cell-based, Hepatitis C virus; details: Hepatitis C virus, absence of human plasma; Table 5; read-out: EC50 (nM, in the absence of HP) 4a
Source text: as §1

[6] = system: HCV genotype 2a replicon; assay: HCV genotype 2a replicon assay; assay type: cell-based, Hepatitis C virus; details: Hepatitis C virus, absence of human plasma; Table 5; read-out: EC50 (nM, in the absence of HP) 2a
Source text: as §1

[7] = system: HCV 1b-Con1 replicon; assay: HCV 1b-Con1 replicon assay in the presence of 5% FBS (luciferase reporter); assay type: cell-based; details: Hepatitis C virus
[8] = 5% FBS and 40% human plasma, Table 3, read-out: EC50 (nM, in the presence of 5% FBS and 40% HP) 1a
[9] = 5% FBS, Table 3, read-out: EC50 (nM, in the presence of 5% FBS) 1a
[10] = 5% FBS and 40% human plasma, Table 3, read-out: EC50 (nM, in the presence of 5% FBS and 40% HP) 1b
[11] = 5% FBS, Table 3, read-out: EC50 (nM, in the presence of 5% FBS) 1b
[12] = 40% human plasma, Table 5, read-out: EC50 (nM, in the presence of 40% HP) 1a
[13] = 40% human plasma, Table 5, read-out: EC50 (nM, in the presence of 40% HP) 1b

Row | Structure (SMILES) | EC50 [1, 12] [nM] | EC50 [3] [nM] | EC50 [4] [nM] | EC50 [2, 13] [nM] | EC50 [5] [nM] | EC50 [6] [nM] | further results
1 | COC(=O)N[C@H](C(=O)N1CCC[C@H]1c1nc2cc([C@H]3CC[C@H](c4ccc5[nH]c([C@@H]6CCCN6C(=O)[C@@H](NC(=O)OC)C(C)C)nc5c4)N3)ccc2[nH]1)C(C)C |  |  |  |  |  |  | EC50 [1, 8]: 2500 to 8000 nM; EC50 [1, 9]: > 250 nM; EC50 [2, 10]: > 4500 nM; EC50 [2, 11]: > 250 nM
2 | COC(=O)N[C@H](C(=O)N1CCC[C@H]1c1nc2cc(-c3ccc(-c4ccc5nc([C@@H]6CCCN6C(=O)[C@@H](NC(=O)OC)C(C)C)[nH]c5c4)nc3)ccc2[nH]1)C(C)C |  |  |  |  |  |  | EC50 [1, 8]: < 3.2 nM; EC50 [1, 9]: < 0.32 nM; EC50 [2, 10]: < 3.2 nM; EC50 [2, 11]: < 0.32 nM
3 | CCOC(=O)N[C@H](C(=O)N1CCC[C@H]1c1nc2cc(-c3ccc(-c4ccc5nc([C@@H]6CCCN6C(=O)[C@@H](NC(=O)OCC)C(C)C)[nH]c5c4)nc3)ccc2[nH]1)C(C)C |  |  |  |  |  |  | EC50 [1, 8]: 83 nM; EC50 [1, 9]: 6.8 nM; EC50 [2, 10]: 190 nM; EC50 [2, 11]: 2.9 nM
4 | COC(=O)N[C@H](C(=O)N1CCC[C@H]1C(=O)Nc1ccc([C@@H]2CC[C@@H](c3ccc(NC(=O)[C@@H]4CCCN4C(=O)[C@@H](NC(=O)OC)C(C)C)cc3)N2)cc1)C(C)C |  |  |  |  |  |  | EC50 ([1]; 5% FBS and 40% human plasma, Table 4, read-out: EC50 (nM, in the presence of 5% FBS and 40% HP) 1a): 1200 nM; EC50 ([1]; 5% FBS, Table 4, read-out: EC50 (nM, in the presence of 5% FBS) 1a): 290 nM; EC50 ([2]; 5% FBS and 40% human plasma, Table 4, read-out: EC50 (nM, in the presence of 5% FBS and 40% HP) 1b): 2400 nM; EC50 ([2]; 5% FBS, Table 4, read-out: EC50 (nM, in the presence of 5% FBS) 1b): 320 nM
5 | COC(=O)N[C@H](C(=O)N1CCC[C@H]1c1nc2cc([C@H]3CC[C@H](c4ccc5[nH]c([C@@H]6CCCN6C(=O)[C@@H](NC(=O)OC)C(C)C)nc5c4)N3c3ccc(C(C)(C)C)cc3)ccc2[nH]1)C(C)C | 0.1 | ≤ 0.05 | ≤ 0.05 | 0.3 | ≤ 0.05 | 0.2 | 
6 | COC(=O)N[C@H](C(=O)N1CCC[C@H]1c1nc2cc([C@H]3CC[C@H](c4ccc5[nH]c([C@@H]6CCCN6C(=O)[C@@H](NC(=O)OC)C(C)C)nc5c4)N3c3ccc(C4CC4)cc3)ccc2[nH]1)C(C)C | 0.1 | ≤ 0.05 | ≤ 0.05 | 0.3 | ≤ 0.05 | ≤ 0.05 | 
7 | COC(=O)N[C@H](C(=O)N1C[C@@H](OC)C[C@H]1c1nc2cc([C@H]3CC[C@H](c4ccc5[nH]c([C@@H]6C[C@H](OC)CN6C(=O)[C@@H](NC(=O)OC)C(C)C)nc5c4)N3c3ccc(C(C)(C)C)cc3)ccc2[nH]1)C(C)C | 0.3 |  |  | 0.8 |  |  | 
8 | COC(=O)N[C@H](C(=O)N1CCC[C@H]1c1nc2cc([C@H]3CC[C@H](c4ccc5[nH]c([C@@H]6CCCN6C(=O)[C@@H](NC(=O)OC)C(C)C)nc5c4)N3c3ccc(N4CCCCC4)c(F)c3)ccc2[nH]1)C(C)C | 0.2 | ≤ 0.05 | ≤ 0.05 | 0.4 | ≤ 0.05 | ≤ 0.05 | 
9 | COC(=O)N[C@H](C(=O)N1CCC[C@H]1c1nc2ccc([C@H]3CC[C@H](c4ccc5nc([C@@H]6CCCN6C(=O)[C@@H](NC(=O)OC)C(C)C)[nH]c5c4)N3c3ccc(C4CC4)cc3F)cc2[nH]1)C(C)C | 0.1 | ≤ 0.05 | ≤ 0.05 | 0.2 | ≤ 0.05 | ≤ 0.05 | 
10 | COC(=O)N[C@H](C(=O)N1CCC[C@H]1c1nc2cc([C@H]3CC[C@H](c4ccc5[nH]c([C@@H]6CCCN6C(=O)[C@@H](NC(=O)OC)C(C)C)nc5c4)N3c3ccc(N4CCCCC4)c(Cl)c3)ccc2[nH]1)C(C)C | 0.2 | ≤ 0.05 | ≤ 0.05 | 0.2 | ≤ 0.05 | ≤ 0.05 | 
11 | COC(=O)N[C@H](C(=O)N1CCC[C@H]1c1nc2cc([C@H]3CC[C@H](c4ccc5[nH]c([C@@H]6CCCN6C(=O)[C@@H](NC(=O)OC)C(C)C)nc5c4)N3c3ccc(N4CCCCC4)c(C(F)(F)F)c3)ccc2[nH]1)C(C)C | 0.6 | ≤ 0.05 | ≤ 0.05 | 0.3 | ≤ 0.05 | 0.5 | 
12 | COC(=O)N[C@H](C(=O)N1CCC[C@H]1c1nc2cc([C@H]3CC[C@H](c4ccc5[nH]c([C@@H]6CCCN6C(=O)[C@@H](NC(=O)OC)C(C)C)nc5c4)N3c3ccc(N4CCCCC4)c(C#N)c3)ccc2[nH]1)C(C)C | 0.4 | ≤ 0.05 | ≤ 0.05 | 0.5 | ≤ 0.05 | 0.07 | 
13 | COC(=O)N[C@H](C(=O)N1CCC[C@H]1c1nc2cc([C@H]3CC[C@H](c4ccc5[nH]c([C@@H]6CCCN6C(=O)[C@@H](NC(=O)OC)C(C)C)nc5c4)N3c3cc(F)c(N4CCCCC4)c(F)c3)ccc2[nH]1)C(C)C | 0.1 | ≤ 0.05 | ≤ 0.05 | 0.2 | ≤ 0.05 | ≤ 0.05 | 
14 | COC(=O)N[C@H](C(=O)N1CCC[C@H]1c1nc2cc([C@H]3CC[C@H](c4ccc5[nH]c([C@@H]6CCCN6C(=O)[C@@H](NC(=O)OC)C(C)C)nc5c4)N3c3ccc(C4CC4)c(F)c3)ccc2[nH]1)C(C)C | 0.1 | ≤ 0.05 | ≤ 0.05 | 0.1 | ≤ 0.05 | ≤ 0.05 | 
15 | COC(=O)N[C@H](C(=O)N1CCC[C@H]1C(=O)Nc1ccc([C@H]2CC[C@H](c3ccc(NC(=O)[C@@H]4CCCN4C(=O)[C@@H](NC(=O)OC)C(C)C)cc3)N2c2ccc(C(C)(C)C)cc2)cc1)C(C)C | 0.2 | ≤ 0.05 | ≤ 0.05 | 0.1 | ≤ 0.05 | ≤ 0.05 | 
16 | COC(=O)N[C@H](C(=O)N1CCC[C@H]1c1nc2cc(C3CC[C@H](c4ccc5[nH]c([C@@H]6CCCN6C(=O)[C@@H](NC(=O)OC)C6CCOCC6)nc5c4)N3c3cc(F)c(N4CCCCC4)c(F)c3)ccc2[nH]1)C1CCOCC1 (stereo in doubt) [Example 3.18, dimethyl({(2R,5R)-1-[3,5-difluoro-4-(piperidin-1-yl)phenyl]pyrrolidine-2,5-diyl}bis{1H-benzimidazole-5,2-diyl(2S)pyrrolidine-2,1-diyl[(1S)-2-oxo-1-(tetrahydro-2H-pyran-4-yl)ethane-2,1-diyl]})biscarbamate] |  |  |  |  |  |  | EC50 [7]: < 0.1 nM
17 | COC(=O)N[C@H](C(=O)N1CCCC1c1nc2cc([C@H]3CCC(c4cc5nc([C@@H]6CCCN6C(=O)[C@@H](NC(=O)OC)C(C)C)[nH]c5cc4F)N3c3cnc(N4CCC(c5ccccc5)CC4)nc3)c(F)cc2[nH]1)C(C)C (stereo in doubt) [Example 3.46, methyl{(2S)-1-[(2S)-2-(6-fluoro-5-{(2R,5S)-5-{6-fluoro-2-[(2S)-1-{(2S)-2-[(methoxycarbonyl)amino]-3-methylbutanoyl}pyrrolidin-2-yl]-1H-benzimidazol-5-yl}-1-[2-(4-phenylpiperidin-1-yl)pyrimidin-5-yl]pyrrolidin-2-yl}-1H-benzimidazol-2-yl)pyrrolidin-1-yl]-3-methyl-1-oxobutan-2-yl}carbamate] |  |  |  |  |  |  | EC50 [7]: < 0.1 nM
18 | COC(=O)N[C@H](C(=O)N1CCC[C@H]1c1nc2cc([C@H]3CC[C@H](c4ccc5[nH]c([C@@H]6CCCN6C(=O)[C@@H](NC(=O)OC)C(C)C)nc5c4)N3c3ccc(N4CCCCC4=O)cc3)ccc2[nH]1)C(C)C [Example 1.2] |  |  |  |  |  |  | EC50 [7]: > 10000 nM
19 | COC(=O)N[C@H](C(=O)N1CCC[C@H]1c1nc2cc([C@H]3CC[C@H](c4ccc5[nH]c([C@@H]6CCCN6C(=O)[C@@H](NC(=O)OC)C(C)C)nc5c4)N3c3cc(F)c(N4C[C@H]5CCCC[C@H]5C4)c(F)c3)ccc2[nH]1)C(C)C [Example 4.3, methyl{(2S)-1-[(2S)-2-{5-[(2R,5R)-1-{3,5-difluoro-4-[(3aR,7aS)-octahydro-2H-isoindol-2-yl]phenyl}-5-{2-[(2S)-1-{(2S)-2-[(methoxycarbonyl)amino]-3-methylbutanoyl}pyrrolidin-2-yl]-1H-benzimidazol-5-yl}pyrrolidin-2-yl]-1H-benzimidazol-2-yl}pyrrolidin-1-yl]-3-methyl-1-oxobutan-2-yl}carbamate] | 0.1 |  |  | 0.2 |  |  | 
